Patent publication US9701689B2, “Substituted pyridines and pyridazines as CCR10 receptor inhibitors” (KYOWA HAKKO KIRIN CO., LTD., priority 2012, dated 2017)

Key:
[1] = system: Dinitrofluorobenzene-induced Auricle Edema Reaction in Mouse; experiment: Suppressive action on dinitrofluorobenzene-induced auricle edema reaction in mouse; assay type: in vivo; details: BALB/c mice; for suppressive action on auricle edema response (in words): topical application in acetone, summary of Table 28; for inhibition in vivo at 1 %: test compound concentration 1% (w/v) in acetone
Method: [Experimental Example 2] Suppressive Action on Dinitrofluorobenzene-induced Auricle Edema Reaction in Mouse
BALB/c mice (female, supplied by CHARLES RIVER LABORATORIES JAPAN, INC.) were purchased at the age of 5 weeks. After quarantine and acclimation, mice showing smooth body weight increase and free of abnormality in appearance were used and the test was started at the age of 7 weeks. The mice were housed in a breeding room at room temperature 19-25° C., humidity 30-70%, 12 hr lighting per day (7 a.m.-7 p.m.) with 3 mice in each plastic gauge, and bred on with free ingestion of a commercially available solid feed and water.
Two days before the test, the abdomen of the BALB/c mice was shaved, and the mice were immunized by applying 100 μL of a solution {concentration 0.5% [weight (w)/volume (v) %]} of dinitrofluorobenzene (manufactured by Nacalai Tesque) in acetone (manufactured by Wako Pure Chemical Industries, Ltd.) to the shaved part. The reaction was induced by applying dinitrofluorobenzene-acetone solution [concentration 0.2% (w/v %)] to the front and the back of auricle (10 μL to each, total 20 μL) on day 5 after the immunization. A test compound dissolved in acetone at concentration of 0.1% or 1% (w/v %) was administered by applying same to the front and the back of auricle (10 μL to each, total 20 μL) 1 hr before and 3 hr after induction of the reaction. After application, the applied part was air-dried with a dryer.
The group applying administered with the test compound was taken as a test compound administration group, and the group applying administered with acetone as a solvent instead of the test compound was taken as a solvent administration group. Also, the group free of immunization and reaction induction but applying administered with acetone instead of the test compound was taken as a normal group. The thickness of auricle was measured using a dial thickness gauge (G-1A manufactured by OZAKI MFG. CO., LTD.) immediately before and 24 hr after induction of the reaction, and the difference thereof was taken as auricle edema. The suppression rate (%) of auricle edema was calculated according to the following formula.

human CCR10 = biological target: T1, human CCR10 (Homo sapiens, UniProt P46092); experiment: CCR10 antagonistic effect: calcium assay of human CCR10 (CTACK-induced increase of intracellular calcium in hCCR10G16 cells); assay type: cell-based; details: at a concentration of not more than 1000 nmol/L; human CCR10-expressing hCCR10G16 cells, 300 nmol/L CTACK added; read-out: inhibition of increase in the calcium ion concentration
T1 construct: expressed in transfected cells; host or cells: KJMGER8 cells (Namalwa cell-derived line), beta-estradiol-induced; hCCR10G16 cells
T1 sequence (P46092 1-362): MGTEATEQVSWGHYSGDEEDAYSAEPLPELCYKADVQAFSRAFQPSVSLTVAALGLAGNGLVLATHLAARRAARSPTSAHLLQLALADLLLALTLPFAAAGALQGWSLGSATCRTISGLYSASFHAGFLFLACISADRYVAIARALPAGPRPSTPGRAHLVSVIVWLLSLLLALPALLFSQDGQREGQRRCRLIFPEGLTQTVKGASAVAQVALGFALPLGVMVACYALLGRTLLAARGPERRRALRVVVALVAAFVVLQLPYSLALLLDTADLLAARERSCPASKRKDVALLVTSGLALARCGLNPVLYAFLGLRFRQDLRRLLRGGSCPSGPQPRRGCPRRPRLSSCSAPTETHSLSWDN
Outline: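 Inhibition of CTACK-evoked calcium flux (max minus min Fluo-3 fluorescence over ~5 min, FDSS) was calculated against control in β-estradiol-induced human CCR10/Gα16 KJMGER8 cells, after 30 min compound preincubation at 37 °C; CTACK added from a 300 nmol/L solution.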

[2] = Mus musculus, topical, applied to auricle 1 hr before and 3 hr after induction, measured 24 hr after induction, read-out: auricle edema suppression rate (%)

Compound	inhibition at up to 1 µM (human CCR10)	suppressive action on auricle edema response (in words) [1]	inhibition in vivo at 1 % [1, 2]	inhibition in vivo at 0.1 % ([1]; Mus musculus, topical, test compound concentration 0.1% (w/v) in acetone, applied to auricle 1 hr before and 3 hr after induction, measured 24 hr after induction, read-out: auricle edema suppression rate (%))
Cc1cc(F)ccc1Nc1cc(S(=O)(=O)Nc2ccon2)ncc1C(=O)N1CCC(c2ccc(F)cc2)CC1 [Compound 11, 4-(4-fluoro-2-methylphenylamino)-5-[4-(4-fluorophenyl)piperidine-1-carbonyl]-N-(isoxazol-3-yl)pyridine-2-sulfonamide]	≥ 50%	showed a suppressive action on auricle edema response	32%	
CCNC(=O)NS(=O)(=O)c1cc(Nc2ccc(F)cc2C)c(C(=O)N2CCC(c3ccc(F)cc3)CC2)cn1 [Compound 22, N-(ethylcarbamoyl)-4-(4-fluoro-2-methylphenylamino)-5-[4-(4-fluorophenyl)piperidine-1-carbonyl]pyridine-2-sulfonamide]	≥ 50%	showed a suppressive action on auricle edema response	47%	
Cc1cc(Cl)ccc1Nc1cc(S(=O)(=O)NC(=O)NC2CC2)ncc1C(=O)N1CCC(c2ccc(F)cc2)CC1 [Compound 21, 4-(4-chloro-2-methylphenylamino)-N-(cyclopropylcarbamoyl)-5-[4-(4-fluorophenyl)piperidine-1-carbonyl]pyridine-2-sulfonamide]	≥ 50%	showed a suppressive action on auricle edema response		26%
Cc1cc(F)ccc1Nc1c(C(=O)N2CCC(c3ccc(F)cc3)CC2)cnc(S(N)(=O)=O)c1Cl [Compound 25, 3-chloro-4-(4-fluoro-2-methylphenylamino)-5-[4-(4-fluorophenyl)piperidine-1-carbonyl]pyridine-2-sulfonamide]	≥ 50%	showed a suppressive action on auricle edema response	47%	

More lines, main results first:

inhibition at up to 1 µM (human CCR10)	Compound	suppressive action on auricle edema response (in words) [1]	inhibition in vivo at 1 % [1, 2]	inhibition in vivo at 0.1 % ([1]; Mus musculus, topical, test compound concentration 0.1% (w/v) in acetone, applied to auricle 1 hr before and 3 hr after induction, measured 24 hr after induction, read-out: auricle edema suppression rate (%))
≥ 50%	NS(=O)(=O)c1ncc(C(=O)N2CCC(c3ccc(F)cc3)CC2)c(Nc2ccc(C(F)(F)F)cc2)c1Cl [Compound 291, 3-chloro-5-[4-(4-fluorophenyl)piperidine-1-carbonyl]-4-[4-(trifluoromethyl)phenylamino]pyridine-2-sulfonamide]	showed a suppressive action on auricle edema response	35%	
≥ 50%	NS(=O)(=O)c1ncc(C(=O)N2CCC(c3ccc(F)cc3)CC2)c(Nc2cccc(Cl)c2)c1Cl [Compound 176, 3-chloro-4-(3-chlorophenylamino)-5-[4-(4-fluorophenyl)piperidine-1-carbonyl]pyridine-2-sulfonamide]	showed a suppressive action on auricle edema response	42%	
≥ 50%	Cc1c(S(=O)(=O)Nc2ccon2)ncc(C(=O)N2CCC(c3ccc(F)cc3)CC2)c1Nc1ccc(Cl)cc1 [Compound 259, 4-(4-chlorophenylamino)-5-[4-(4-fluorophenyl)piperidine-1-carbonyl]-N-(isoxazol-3-yl)-3-methylpyridine-2-sulfonamide]	showed a suppressive action on auricle edema response	38%	
≥ 50%	Cc1cc(NS(=O)(=O)c2ncc(C(=O)N3CCC(c4ccc(F)cc4)CC3)c(Nc3ccccc3C)c2C)sn1 [Compound 241, 5-[4-(4-fluorophenyl)piperidine-1-carbonyl]-3-methyl-N-(3-methylisothiazol-5-yl)-4-(o-tolylamino)pyridine-2-sulfonamide]	showed a suppressive action on auricle edema response	27%	
≥ 50%	Cc1c(S(=O)(=O)Nc2ccon2)ncc(C(=O)N2CCC(c3ccc(F)cc3)CC2)c1Nc1cccc(F)c1 [Compound 233, 5-[4-(4-fluorophenyl)piperidine-1-carbonyl]-4-(3-fluorophenylamino)-N-(isoxazol-3-yl)-3-methylpyridine-2-sulfonamide]	showed a suppressive action on auricle edema response	24%	
≥ 50%	Cc1ccc(Cl)cc1Nc1c(C(=O)N2CCC(c3ccc(F)cc3)CC2)cnc(S(=O)(=O)Nc2ccon2)c1C [Compound 232, 4-(5-chloro-2-methylphenylamino)-5-[4-(4-fluorophenyl)piperidine-1-carbonyl]-N-(isoxazol-3-yl)-3-methylpyridine-2-sulfonamide]	showed a suppressive action on auricle edema response	39%	
